The values that follow are results of earlier work, collected in patent publication US11230553B2, “Nannocystin process and products” (THE RESEARCH FOUNDATION FOR THE STATE UNIVERSITY OF NEW YORK, priority 2016, dated 2022).

Series [1] has as its system HL60. Conditions: HL60 cancer cell line; read-out: IC50 against HL60.
In series [2] the test system is HCT116. The settings on record: HCT116 cancer cell line; read-out: IC50 against HCT116.
Series [3] concerns 472 cancer cell lines.
Series [4] relates to PC3. Conditions: PC3 cancer cell line; read-out: IC50 against PC3.

Take `CC[C@H](C)[C@H]1C(=O)N[C@H](Cc2cc(Cl)c(O)c(Cl)c2)C(=O)N[C@@H](C(C)(C)O)C(=O)O[C@H](c2ccccc2)[C@H](C)/C=C/C=C(\C)[C@H](OC)C[C@@H]2O[C@@]2(C)C(=O)N1C` [nannocystin A, (1), (1R,4S,7R,10S,13S,14R,15E,17E,19R,21S)-4-((S)-sec-butyl)-7-(3,5-dichloro-4-hydroxybenzyl)-10-(2-hydroxypropan-2-yl)-19-methoxy-1,3,14,18-tetramethyl-13-phenyl-12,22-dioxa-3,6,9-triazabicyclo[19.1.0]docosa-15,17-diene-2,5,8,11-tetraone]: the IC50 was 12 nM in series [1], 1.2 nM in series [2] and 1 nM in series [4]. The “anti-proliferative properties against 472 cancer cell lines” value in series [3] is recorded as “nanomolar concentration range”.
